Assays:
[1] = biological target: T1, A-DA lipid probe targets in A549 cells (Homo sapiens, UniProt P35354); test: In situ competitive SILAC profiling with A-DA probe in (PMA-stimulated) A549 cells; details: PMA-stimulated A549 cells, A-DA 5 μM, drug 25 μM
T1 sequence (P35354 18-604): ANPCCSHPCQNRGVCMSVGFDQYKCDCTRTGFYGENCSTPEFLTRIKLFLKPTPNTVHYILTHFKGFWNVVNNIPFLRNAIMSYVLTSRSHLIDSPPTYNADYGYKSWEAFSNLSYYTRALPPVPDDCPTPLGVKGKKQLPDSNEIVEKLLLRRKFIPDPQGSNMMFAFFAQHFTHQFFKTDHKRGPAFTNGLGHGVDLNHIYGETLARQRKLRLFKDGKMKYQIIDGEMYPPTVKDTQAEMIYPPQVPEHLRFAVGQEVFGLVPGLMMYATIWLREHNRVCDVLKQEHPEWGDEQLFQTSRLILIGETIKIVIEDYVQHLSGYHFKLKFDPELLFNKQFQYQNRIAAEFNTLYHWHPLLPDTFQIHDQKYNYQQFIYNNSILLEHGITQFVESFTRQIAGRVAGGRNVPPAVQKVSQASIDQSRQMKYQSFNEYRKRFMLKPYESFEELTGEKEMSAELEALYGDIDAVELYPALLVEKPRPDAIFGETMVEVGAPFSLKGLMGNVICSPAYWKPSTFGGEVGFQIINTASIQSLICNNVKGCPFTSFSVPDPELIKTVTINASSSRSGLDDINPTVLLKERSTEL

[2] = biological target: T2, A-DA lipid probe targets in A549 cells (Homo sapiens, UniProt Q9UH99); test: as above; details: protein SUN2 (Q9UH99); A549 cells; competitor 25 μM
T2 sequence (Q9UH99 1-717): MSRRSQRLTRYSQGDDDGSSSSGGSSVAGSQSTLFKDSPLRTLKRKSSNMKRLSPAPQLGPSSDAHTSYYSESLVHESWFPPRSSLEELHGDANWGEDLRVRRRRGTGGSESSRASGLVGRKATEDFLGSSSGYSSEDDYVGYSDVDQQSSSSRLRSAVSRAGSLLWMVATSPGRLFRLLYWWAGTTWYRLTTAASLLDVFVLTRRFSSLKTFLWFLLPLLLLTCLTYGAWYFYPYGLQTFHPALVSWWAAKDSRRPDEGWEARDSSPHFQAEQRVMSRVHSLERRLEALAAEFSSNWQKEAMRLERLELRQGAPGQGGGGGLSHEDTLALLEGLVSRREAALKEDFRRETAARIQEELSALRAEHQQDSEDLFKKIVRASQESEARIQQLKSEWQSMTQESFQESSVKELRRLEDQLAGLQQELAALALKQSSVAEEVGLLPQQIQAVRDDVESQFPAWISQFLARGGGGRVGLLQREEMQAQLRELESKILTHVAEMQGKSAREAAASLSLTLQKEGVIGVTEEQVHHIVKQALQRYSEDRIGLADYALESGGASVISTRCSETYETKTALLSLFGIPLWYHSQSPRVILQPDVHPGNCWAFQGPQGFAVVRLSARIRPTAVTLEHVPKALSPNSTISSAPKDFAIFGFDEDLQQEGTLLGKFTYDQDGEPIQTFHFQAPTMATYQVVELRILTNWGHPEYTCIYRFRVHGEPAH

[3] = biological target: A-DA lipid probe targets in A549 cells (Homo sapiens, UniProt P07093); test: as above; details: protein SERPINE2 (P07093); A549 cells; competitor 25 μM
[4] = system: PGF2α-EA formation in PMA-stimulated A549 cells; test: Oxidative metabolism of AEA in A549 cells (prostamide formation); type: cell-based, human; details: MJN228, KML110 5 and 25 μM, others 25 μM, AEA 20 μM
Procedure: The media from the PMA-stimulated cells was removed and cells were washed with DPBS (2×3 mL) before adding freshly prepared media solutions containing vehicle or compound (2 mL/plate). After incubating for 30 min at 37° C., a solution of BHT-stabilized AEA (60 μM AEA; 60 μM BHT) in the same media was added to the cells (1.0 mL/plate) and incubated for 1 h. The media from the cells was then transferred to glass vials containing MS internal standards [PGE2-EA-d4 (25 pmol)], centrifuged (1,500×g, 5 min) to remove detached cells and then loaded onto pre-equilibrated reversed phase SPE cartridges (Phenomenex, Strata-X 33 μm, 60 mg/3 mL). After washing cartridges with 5% MeOH/H2O (3 mL), prostamides were eluted with MeOH (1.0 mL) and the eluent was concentrated under a stream of N2. Concentrated samples were stored at −80° C. until the day of analysis when they were reconstituted in Mobile Phase A [100 μL, 30% CH3CN in H2O (0.1% AcOH, 5.0 mM NH4OAc)].
Media extracts were analyzed by LC/MS/MS with LC separation performed on a Kinetex reversed phase C18 column (50×4.6 mm, 2.6 μm particle size, 100Å). Mobile phase A was composed of 30% (v/v) CH3CN in H2O and Mobile phase B was composed of 50% (v/v) CH3CN in i-PrOH. Both mobile phases also contained 0.1% AcOH and NH4OAc (5 mM) to facilitate ionization and LC separation. […]
MS analysis of prostamides was performed on an Agilent 6460 Triple Quadrupole LC/MS System with operating conditions as follows: gas temperature (300° C.); gas flow (9 L·min^−1); nebulizer (45 psi); sheath gas temperature (300° C.); sheath gas flow (12 L·min^−1); positive and negative capillary voltage (3.5 kV). Analysis was achieved using multiple reaction monitoring with precursor to product ion transitions, optimized collision energies (CE) as listed below and prostamide quantification was achieved by normalized of analyte peaks relative to a deuterated prostamide internal standard (PGE2-EA-d4) to account for differences in extraction efficiency. […]

[5] = biological target: T3, A-DA lipid probe targets in Neuro2a cells (Mus musculus, UniProt P45377); test: In situ competitive SILAC profiling with A-DA probe in Neuro2a cells; type: cell-based; details: Neuro2A cells, A-DA 5 μM, drug 25 μM
T3 construct: endogenous in cells; host or cells: Neuro2a
T3 sequence (P45377 whole entry): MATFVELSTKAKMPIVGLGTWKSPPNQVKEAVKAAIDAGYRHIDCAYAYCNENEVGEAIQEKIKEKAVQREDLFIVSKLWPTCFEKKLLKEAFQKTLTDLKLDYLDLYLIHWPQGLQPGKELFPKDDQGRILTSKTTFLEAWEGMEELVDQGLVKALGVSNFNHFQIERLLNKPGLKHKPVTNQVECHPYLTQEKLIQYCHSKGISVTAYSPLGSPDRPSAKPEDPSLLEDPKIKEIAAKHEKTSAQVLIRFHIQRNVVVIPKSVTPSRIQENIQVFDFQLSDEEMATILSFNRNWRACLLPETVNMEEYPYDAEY

Sequence of A-DA lipid probe targets in A549 cells (Homo sapiens, UniProt P07093) (P07093 20-398): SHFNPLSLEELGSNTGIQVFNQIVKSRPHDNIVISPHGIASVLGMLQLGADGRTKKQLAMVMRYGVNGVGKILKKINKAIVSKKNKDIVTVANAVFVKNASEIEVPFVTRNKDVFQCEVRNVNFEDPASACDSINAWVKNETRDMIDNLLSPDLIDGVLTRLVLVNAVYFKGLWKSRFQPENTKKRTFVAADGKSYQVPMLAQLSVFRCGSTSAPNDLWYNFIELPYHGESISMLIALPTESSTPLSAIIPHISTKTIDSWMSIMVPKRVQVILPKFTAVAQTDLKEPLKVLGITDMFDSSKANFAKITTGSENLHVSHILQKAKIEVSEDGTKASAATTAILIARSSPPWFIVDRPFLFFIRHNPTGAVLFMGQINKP

With `CS(=O)(=O)c1ccc(C2=C(c3ccccc3)C(=O)OC2)cc1` [rofecoxib, reference compound] the “competition of A-DA labeling of PTGS2” value [1] was “disrupted”, the “SILAC ratio, A-DA competition” value [2] was 1.2 and the “SILAC ratio, A-DA competition” value [3] was 1.1. For the same compound, the “conversion of exogenous AEA to PGF2α-EA” value [4] was “blocked” and the “A-DA labeling of AKR1B8” value [5] was “reductions”.

Source: patent publication US10168342B2, “Lipid probes and uses thereof” (THE SCRIPPS RESEARCH INSTITUTE, priority 2015, dated 2019)
